Data as given in PubChem BioAssay AID1963597 (National Center for Advancing Translational Sciences (NCATS), 2024).
Non-standard residues stand in square brackets, D forms with d. Residues, ends and D or L forms follow the SMILES beside them. *: point of attachment. Sta = CC(C)C[C@H](N)[C@@H](O)CC(=O)O; Isovaleryl = CC(C)CC(=O)*

What follows are molecules tested on human liver microsomes, metabolic stability half-life (assay: NCATS Human Liver Microsomal (HLM) Stability Profiling). Conditions: higher = more stable; screened at 1 µM (by protocol).
Method in brief: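 Half-life derived from parent loss over 0–60 min (0, 5, 10, 15, 30, 60 min) at 37 °C. Incubations: 0.5 mg/mL microsomes, 1 µM test article, NADPH regeneration, pH 7.4 phosphate; quenched in acetonitrile containing albendazole, analysed by MS.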

| SMILES | half-life |
| --- | --- |
| Cc1nc(C2CCCCC2)c(-c2ccc(S(N)(=O)=O)c(F)c2)o1 | 30.7 min |
| C1Cc2[nH]nc(-c3nn[nH]n3)c2C1 | > 120 min |
| COc1cc(C(=O)NCC2(N(C)C)CCCC2)cc(OC)c1OCc1ccccc1 | 38.3 min |
| CCc1ccc(C(=O)C(C)CN2CCCCC2)cc1 (stereo not given) | 4.87 min |
| OC1(c2ccc(Cl)cc2)c2ccccc2C2=NCCN21 (stereo not given) | 74.4 min |
| CO[C@@H](Cc1ccc(OCCc2nc(-c3ccccc3)oc2C)c2ccsc12)C(=O)O | 72.2 min |
| COc1ccc(-c2ccn(CC[C@](C)(C(=O)NO)S(C)(=O)=O)c(=O)c2)c(F)c1 | > 120 min |
| CN1CCN(C2CCC(n3cc(-c4ccc(Oc5ccccc5)cc4)c4c(N)ncnc43)CC2)CC1 (stereo not given) | 58.6 min |
| CC(C)c1ccc(-n2ncc3c(=O)n(CC(=O)Nc4cc(F)ccc4Cl)cnc32)cc1 | 23.9 min |
| C=C1C(=O)O[C@@H]2[C@H]3O[C@]3(C)CC/C=C(\C)CC[C@@H]12 | > 120 min |
| CCN(CC)Cc1cccc(/C=C/c2nc3ccc(F)cc3c(=O)n2-c2ccccc2Cl)n1 | 25.8 min |
| O=C(O)c1cccc(CN2C(=O)/C(=C(\c3ccccc3)c3ccc(Cl)cc3)c3ccccc32)c1 | > 120 min |
| CNc1ccc2oc(C[C@H]3O[C@@]4(CC[C@H]3C)O[C@H](C(C)C(=O)c3ccc[nH]3)[C@H](C)C[C@H]4C)nc2c1C(=O)O (stereo not given in full) | > 120 min |
| CCOP(=S)(Oc1cnc(C(C)(C)C)nc1)OC(C)C (stereo not given) | 11.1 min |
| CN(C)CCC[C@@]1(c2ccc(F)cc2)OCc2cc(C#N)ccc21 | > 120 min |
| COP(=O)(OC)Oc1ccc([N+](=O)[O-])cc1 | 13.3 min |
| Cc1ccc(C(=O)NC2CCN(c3cnn(CC4CC4)c(=O)c3)CC2)cc1C | > 120 min |
| O=C(O)c1ccc(-c2ccc(N3CCCCCC3)nc2)cc1 | > 120 min |
| Cc1ccccc1NC(=O)Nc1cccs1 | 22.8 min |
| O=C(CCNc1c(-c2cccc(F)c2)nc2cnccn12)N1CCCC1 | 4.93 min |
| O=C(CCNc1c(-c2ccccc2)nc2cnccn12)N1CCCC1 | 7.99 min |
| O=C(NCC1CCN(Cc2cccc(Cl)c2)CC1)[C@@H]1CCCN(c2ncnc3c2nc2n3CCCC2)C1 | 8.65 min |
| CC(C)(C)Nc1nc(Nc2ccc(C(N)=O)cc2)cc(N)c1C#N | > 120 min |
| Clc1ccc(CO/N=C(\Cn2ccnc2)c2ccc(Cl)cc2Cl)c(Cl)c1 | 55.1 min |
| Oc1cccc(O)c1O | > 120 min |

| SMILES | half-life |
| --- | --- |
| NC(=O)C1(N2CCCCC2)CCN(CCCC(=O)c2ccc(F)cc2)CC1 | 101 min |
| CN1CCN(c2cccc(Nc3nc4c(-c5ccc(S(C)(=O)=O)cc5)cccn4n3)c2)CC1 | > 120 min |
| N#Cc1cccc(CN2CCOC[C@H]2c2ncc(-c3ccc(F)cc3)[nH]2)c1 | 3.38 min |
| O=C(Cn1ncc2c([nH]c3ccccc32)c1=O)NCCCN1CCN(c2ccccc2)CC1 | > 120 min |
| CC(C)CC(=O)N[C@H](C(=O)N[C@H](C(=O)N[C@@H](CC(C)C)[C@@H](O)CC(=O)N[C@@H](C)C(=O)N[C@@H](CC(C)C)[C@@H](O)CC(=O)O)C(C)C)C(C)C (Isovaleryl-VV[Sta]A[Sta]-OH) | > 120 min |
| Clc1ccc(COC(Cn2ccnc2)c2ccc(Cl)cc2Cl)cc1 (stereo not given) | 89.8 min |
| Cc1ccc(NC(=O)c2cccc(N(C)C)c2)cc1NC(=O)c1ccc(O)cc1 | 18.9 min |
| CC(=O)NC[C@H]1CN(c2ccc(N3CCN(C(=O)CO)CC3)c(F)c2)C(=O)O1 | > 120 min |
| Cc1cc(OCc2nnc(SC3CCCC3)n2-c2cccnc2)ccc1-c1ccc(S(C)(=O)=O)cc1 | 1.66 min |
| CC(C)(C)CC(=O)OCC(=O)[C@@]1(O)CC[C@H]2[C@@H]3CCC4=CC(=O)C=C[C@]4(C)[C@H]3[C@@H](O)C[C@@]21C | 2.13 min |
| C[C@]12C=CC(=O)C=C1CCC1C3C[C@@H](O)[C@](O)(C(=O)CO)[C@@]3(C)C[C@H](O)[C@@]12F (stereo not given in full) | > 120 min |
| Cc1cc(C)c(/C=C2\C(=O)Nc3ccccc32)[nH]1 | 11 min |
| CC1=C2[C@H]3OC(=O)[C@@H](C)[C@@H]3CC[C@@]2(C)C=CC1=O | > 120 min |
| COc1ccc(OC)c([C@H](O)[C@H](C)N)c1 | > 120 min |
| CC(=O)Nc1nnc(S(N)(=O)=O)s1 | > 120 min |
| COc1ccc(C(=O)C2CCN(CC(=O)N(Cc3nc4c(c(=O)[nH]3)COCC4)CC3CC3)CC2)cc1 | 81.7 min |
| COc1cnc(-c2ccc(Cn3c(CC(C)(C)C(=O)O)c(SC(C)(C)C)c4cc(OC[C@@H]5Cc6ccccc6N5C(C)=O)ccc43)cc2)nc1 | 12.1 min |
| Nc1ncnc2c1ncn2Cc1c(F)cccc1Cl | > 120 min |
| CC(C)c1ccccc1OC(=O)NCCc1ccc2ccccc2c1 | 4.54 min |
| CC(C)(C)NC[C@H](O)c1cc(O)cc(O)c1 | > 120 min |
| COc1ccc2nc(S(=O)Cc3ncc(C)c(OC)c3C)[nH]c2c1 (stereo not given) | > 120 min |
| CC(C)NC(=O)COc1cccc(-c2nc(Nc3ccc4[nH]ncc4c3)c3ccccc3n2)c1 | 23.4 min |
| COc1ccc(-c2cn3cccnc3n2)cc1NC(=O)c1cc(C)cc(C)c1 | 20.7 min |
| CCn1ccnc1C[C@@H]1COc2ccccc2O1 | 55.3 min |
| CNC(=O)c1cc(Oc2ccc(NC(=O)Nc3ccc(Cl)c(C(F)(F)F)c3)cc2)ccn1 | > 120 min |

| SMILES | half-life |
| --- | --- |
| O=C(Nc1ccnc(NC(=O)C2CC2)c1)c1c(Cl)cccc1Cl | > 120 min |
| CCN1CCN(C(=O)c2cc(-c3ccc(F)cc3)nc3c2cnn3C)CC1 | 99.2 min |
| c1cc2c(c(N3CCNCC3)c1)OCCO2 | > 120 min |
| Cc1ccc(COC(=O)N2CC[C@@H](CNc3ncccn3)[C@@H](F)C2)cc1 | 64.9 min |
| O=C(c1ccc(F)cc1)N1CCC(C(=O)N2CCC(N3Cc4ccccc4C3=O)CC2)CC1 | > 120 min |
| CC1(C)CCC(CN2CCN(c3ccc(C(=O)NS(=O)(=O)c4ccc(NCC5CCOCC5)c([N+](=O)[O-])c4)c(Oc4cnc5[nH]ccc5c4)c3)CC2)=C(c2ccc(Cl)cc2)C1 | 32.8 min |
| C=CCN1CC[C@]23c4c5ccc(O)c4O[C@H]2C(=O)CC[C@@]3(O)[C@H]1C5 | > 120 min |
| CN1CCC(COc2cnc(-c3cccc(Cn4nc(-c5cccc(C#N)c5)ccc4=O)c3)nc2)CC1 | > 120 min |
| COc1ccc(Cn2c(SCc3ccc(C(=O)NC4CCCC4)cc3)nc3ccncc32)cc1 | 14.5 min |
| CCN1CCN(C(=O)Cc2ccc(Nc3ncc(F)c(Nc4ccc(C(=O)Nc5ccccc5Cl)cc4)n3)cc2)CC1 | 4.23 min |
| Cc1cccc(C)c1NC(=O)c1ccccc1C(=O)O | > 120 min |
| CCCc1nc(C)c2c(=O)[nH]c(-c3cc(S(=O)(=O)N4CCN(CC)CC4)ccc3OCC)nn12 | > 120 min |
| COC(=O)[C@@H]1[C@H]2C[C@H]3c4[nH]c5ccccc5c4CCN3C[C@@H]2CC[C@@H]1O | 83.9 min |
| C=CCc1ccccc1OCC(O)CNC(C)C (stereo not given) | 22 min |
| O=C(O)c1ccc2c(c1)nc(Nc1cccc(Cl)c1)c1ccncc12 | 82.5 min |
| COCCc1ccc(OC[C@H](O)CNC(C)C)cc1 | > 120 min |
| Cc1nc(NC(=O)N2CCCC2C(N)=O)sc1-c1ccnc(C(C)(C)C(F)(F)F)c1 (stereo not given) | > 120 min |
| Cc1c(-c2ccnn2C)cc(C(=O)NCc2ccc(S(C)(=O)=O)cn2)c(=O)n1-c1cccc(C(F)(F)F)c1 | > 120 min |
| FC(F)c1nc2ccccc2n1-c1nc(N2CCOCC2)nc(N2CCOCC2)n1 | 25.4 min |
| COc1ccc([C@@H]2Sc3ccccc3NC(=O)[C@@H]2O)cc1 | 67.5 min |
| CCOC(=O)c1sc(NC(=O)c2c(-c3ccccc3)c(-c3ccccc3)nn(C)c2=O)nc1C | > 120 min |
| C[C@H]1COc2c(C3(N)CC3)c(F)cc3c(=O)c(C(=O)O)cn1c23 | > 120 min |
| Cc1ccc(C2=Nc3ccccc3N(CC(=O)Nc3ccccc3F)C(=O)C2)cc1C | 6.23 min |
| C[C@]12CC[C@H]3[C@@H](CCC4=CC(=O)CC[C@@]43C)[C@@H]1CC[C@@H]2C(=O)O | > 120 min |
| Cc1nc2ccc(CN(C)c3ccc(C(=O)NC(CCC(=O)O)C(=O)O)s3)cc2c(=O)[nH]1 (stereo not given) | > 120 min |

| SMILES | half-life |
| --- | --- |
| CN(C)CC/C=C1\c2ccccc2Sc2ccc(Cl)cc21 | 24.3 min |
| CC(C)(C)c1coc([C@@H]2COCCN2Cc2cccc(C#N)c2)n1 | 10.4 min |
| O=c1[nH]c2ccc(Cl)cc2c(N[C@@H]2CN3CCC2CC3)c1-c1nc2ccccc2[nH]1 | 18.8 min |
| CC(=O)C1=C(c2ccc(Cl)c(Cl)c2)N(C(C)=O)n2cnnc2S1 | 4.52 min |
| CCC(=O)c1ccc2c(c1)N(CCCN(C)C)c1ccccc1S2 | 15.4 min |
| Cc1cccc(C)c1NC(=O)Nc1cccs1 | 80.6 min |
| Cc1ccc([S+](=O)([O-])NC2CCC(C)(C)CC2)cc1 | 4.82 min |
| CCSC(=O)N1CCCCCC1 | 27.7 min |
| CCOc1cc(CNC(=O)c2ccc(C)c(NC(=O)c3nsc4ccccc34)c2)ccc1OC | 7.12 min |
| CCN1CCCC1CNC(=O)C(O)(c1ccccc1)c1ccccc1 (stereo not given) | > 120 min |
| CCN(CC)C(=O)SCc1ccc(Cl)cc1 | 2.59 min |
| Cc1ccc(Cl)cc1N1CCN(C(=O)c2cn(C3CCCCC3)c(=O)c3c2c2ccccc2n3C)CC1 | 0.92 min |
| CCCC(CCC)C(=O)Nc1ccn([C@@H]2O[C@H](CO)[C@@H](O)C2(F)F)c(=O)n1 | > 120 min |
| C[C@]12CC[C@@H]3c4ccc(O)cc4CC[C@H]3[C@@H]1CCC2=O | 34.1 min |
| CCOC(=O)C1(c2ccccc2)CCN(CCc2ccc(N)cc2)CC1 | 86.5 min |
| CCOc1cccc(NC(=O)c2ccc(N3CCCC3)c(C(F)(F)F)c2)c1 | 23 min |
| COc1ccc(Oc2c(Cl)cnn(-c3cc(C)cc(C)c3)c2=O)cc1 | 17.4 min |
| CN1CCCC(CC2c3ccccc3Sc3ccccc32)C1 (stereo not given) | 48.7 min |
| CCCCOCCOC(=O)c1cccnc1 | 0.66 min |
| CCCn1cnc2c1c(=O)n(CCCCC(C)=O)c(=O)n2C | > 120 min |
| COc1ccc(-c2ccc3cc(C(=O)O)ccc3c2)cc1C12CC3CC(CC(C3)C1)C2 | 46.1 min |
| CCN1CCN(C(=O)c2cc(-c3ccccc3OC)c3nncn3n2)CC1 | 54.7 min |
| COc1cc2cc(CN3CCC(N(C)C)C3)c(-c3cccc(Cl)c3)nc2cc1OC (stereo not given) | > 120 min |
| Cc1c(NC(=O)OCC2COCCN2)cn2ncnc(Nc3ccc4c(cnn4Cc4cccc(F)c4)c3)c12 (stereo not given) | > 120 min |
| CN/C(=C\[N+](=O)[O-])NCCSCc1csc(CN(C)C)n1 | > 120 min |
